Experimental findings from patent US10457655B2, “Compounds and compositions for inhibition of FASN” (FORMA Therapeutics, Inc., priority 2013, dated 2019) are described below.

Where two headings read alike, the source gives them in different places.

The test system of one assay is PC3 cells. Description: Cell Proliferation Assays for FASN Inhibitors (PC3 cells, MTT). The class given is cell-based. The note with it: Homo sapiens, PC-3, 96 h. As to the method:
The effects of the FASN inhibitors on cultured cancer cell proliferation were studies with cell proliferation assays. PC3 cells were maintained at standard culture media (F12K media supplemented with 10% fetal bovine serum, 1×MEM nonessential amino acid and 1× penicillin/streptomycin). 2000-3000 cells/100 μL/well was seeded in a 96-well clear culture plate. The cells were incubated overnight in 5% CO2 at 37° C. for attachment. Cell media were removed and replaced with F12K media containing 10% lipid reduced serum and compound. The final DMSO concentration is 0.1%. The cells were maintained in 5% CO2 at 37° C. for 4 days. The viability of cells was determined by MTT assays. The IC50 of a given compound was calculated by fitting the dose response curve with a four parameter logistic equation.

A further assay concerns the target FASN enzyme (Homo sapiens, UniProt P49327). Description: Enzymatic Assay for FASN Inhibitors. The class given is biochemical. The essentials:
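40 nM FASN preincubated with compound 60 min at 25° C in HEPES pH 7.3 buffer with 0.04% Triton X-100. Then 20 μM acetyl-CoA, 60 μM malonyl-CoA and 100 μM NADPH added for 90 min, quenched with CPM thiol probe; fluorescence 360/530 nm, IC50 by four-parameter fit.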

Where [1] appears, read: read-out: IC50 (uM) < 0.5, 10% lipid reduced serum, 4 days, Table 3-1.

FASN enzyme, sequence (P49327 whole entry): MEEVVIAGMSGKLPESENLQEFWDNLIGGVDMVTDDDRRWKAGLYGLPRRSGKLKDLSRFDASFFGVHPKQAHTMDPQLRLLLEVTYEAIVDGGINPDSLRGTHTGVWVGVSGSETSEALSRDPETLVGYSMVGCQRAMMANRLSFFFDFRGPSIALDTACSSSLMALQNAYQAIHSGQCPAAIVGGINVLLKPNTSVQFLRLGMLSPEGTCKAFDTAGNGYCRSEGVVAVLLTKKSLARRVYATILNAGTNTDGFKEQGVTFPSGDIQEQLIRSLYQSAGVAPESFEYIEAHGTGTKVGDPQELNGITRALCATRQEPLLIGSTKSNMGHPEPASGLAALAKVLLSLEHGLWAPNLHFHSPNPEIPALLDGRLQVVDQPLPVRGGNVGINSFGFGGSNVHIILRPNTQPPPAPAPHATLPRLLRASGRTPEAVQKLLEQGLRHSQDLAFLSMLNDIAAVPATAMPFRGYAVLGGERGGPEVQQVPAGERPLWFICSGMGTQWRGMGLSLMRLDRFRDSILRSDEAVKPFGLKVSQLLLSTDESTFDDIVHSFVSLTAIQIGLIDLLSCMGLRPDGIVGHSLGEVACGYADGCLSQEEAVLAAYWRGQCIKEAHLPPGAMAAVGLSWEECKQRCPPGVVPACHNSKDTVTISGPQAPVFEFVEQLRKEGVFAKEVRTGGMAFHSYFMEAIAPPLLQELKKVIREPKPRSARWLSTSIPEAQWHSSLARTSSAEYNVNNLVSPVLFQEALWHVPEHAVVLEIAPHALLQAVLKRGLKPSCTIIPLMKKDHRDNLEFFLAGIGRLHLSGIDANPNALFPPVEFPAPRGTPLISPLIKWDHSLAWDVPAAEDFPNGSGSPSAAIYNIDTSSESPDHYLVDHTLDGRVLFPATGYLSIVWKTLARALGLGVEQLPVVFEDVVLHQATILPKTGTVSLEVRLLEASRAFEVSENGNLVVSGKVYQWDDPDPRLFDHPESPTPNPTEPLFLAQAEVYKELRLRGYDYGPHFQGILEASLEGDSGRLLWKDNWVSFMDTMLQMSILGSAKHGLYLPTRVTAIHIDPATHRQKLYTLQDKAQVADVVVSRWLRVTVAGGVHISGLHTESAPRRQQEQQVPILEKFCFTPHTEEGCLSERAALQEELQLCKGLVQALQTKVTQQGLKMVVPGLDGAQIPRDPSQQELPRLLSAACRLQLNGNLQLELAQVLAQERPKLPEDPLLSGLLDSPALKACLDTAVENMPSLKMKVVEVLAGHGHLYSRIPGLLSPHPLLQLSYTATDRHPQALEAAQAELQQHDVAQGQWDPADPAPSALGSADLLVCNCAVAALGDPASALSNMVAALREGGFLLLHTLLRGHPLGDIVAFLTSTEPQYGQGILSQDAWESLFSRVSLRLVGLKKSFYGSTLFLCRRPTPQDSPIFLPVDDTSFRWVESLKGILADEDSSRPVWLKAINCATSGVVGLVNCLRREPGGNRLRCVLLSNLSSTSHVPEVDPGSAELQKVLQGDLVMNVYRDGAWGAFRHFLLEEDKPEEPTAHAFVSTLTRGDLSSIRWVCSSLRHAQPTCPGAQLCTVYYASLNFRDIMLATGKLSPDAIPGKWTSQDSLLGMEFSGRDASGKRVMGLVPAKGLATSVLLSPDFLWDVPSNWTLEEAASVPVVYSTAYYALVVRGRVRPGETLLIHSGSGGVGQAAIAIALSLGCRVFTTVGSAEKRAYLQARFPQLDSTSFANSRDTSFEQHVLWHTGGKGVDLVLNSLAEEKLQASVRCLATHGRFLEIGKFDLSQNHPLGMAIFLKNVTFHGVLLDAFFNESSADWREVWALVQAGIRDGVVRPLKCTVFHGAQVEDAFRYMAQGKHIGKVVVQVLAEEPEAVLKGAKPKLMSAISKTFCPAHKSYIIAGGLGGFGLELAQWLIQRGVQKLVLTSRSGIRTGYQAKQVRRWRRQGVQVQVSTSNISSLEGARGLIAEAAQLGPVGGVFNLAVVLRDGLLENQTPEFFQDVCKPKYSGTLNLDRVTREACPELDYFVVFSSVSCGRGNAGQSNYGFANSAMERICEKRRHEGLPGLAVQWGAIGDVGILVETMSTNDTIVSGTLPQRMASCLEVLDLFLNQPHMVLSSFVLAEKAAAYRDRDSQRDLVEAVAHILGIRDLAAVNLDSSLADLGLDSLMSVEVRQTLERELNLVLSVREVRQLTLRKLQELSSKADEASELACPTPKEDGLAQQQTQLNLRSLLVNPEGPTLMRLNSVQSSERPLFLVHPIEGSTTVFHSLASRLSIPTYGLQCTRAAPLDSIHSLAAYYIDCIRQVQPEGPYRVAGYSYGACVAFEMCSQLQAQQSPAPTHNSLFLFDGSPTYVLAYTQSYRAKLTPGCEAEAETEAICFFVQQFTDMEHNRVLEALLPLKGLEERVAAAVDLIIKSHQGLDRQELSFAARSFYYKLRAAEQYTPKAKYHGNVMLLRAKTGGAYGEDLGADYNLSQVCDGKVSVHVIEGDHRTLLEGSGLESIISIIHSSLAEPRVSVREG

For `CS(=O)(=O)Nc1cccc(-c2ccc(C(=O)N3CCN(C(=O)C4(O)CC4)CC3)cc2)c1` [N-{3-[4-({4-[(1-hydroxycyclopropyl)carbonyl]piperazin-1-yl}carbonyl)phenyl]phenyl}methanesulfonamide], the IC50 with PC3 cells (setting [1]) and against FASN enzyme was less than 0.5 µM in each case.

Regarding `O=C(c1ccc(-c2ccc(Cl)cc2F)cc1)N1CCN(C(=O)C2(O)CC2)CC1` [1-[(4-{[4-(4-chloro-2-fluorophenyl)phenyl]carbonyl}piperazin-1-yl)carbonyl]cyclopropan-1-ol], the IC50 with PC3 cells (setting [1]) and against FASN enzyme was less than 0.5 µM in each case.

In the case of `COc1ccc2nc(-c3ccc(C(=O)N4CCN(C(=O)C5(O)CC5)CC4)cc3)ccc2c1` [1-[(4-{[4-(6-methoxyquinolin-2-yl)phenyl]carbonyl}piperazin-1-yl)carbonyl]cyclopropan-1-ol], the IC50 in the assay with PC3 cells (setting [1]) and against FASN enzyme was less than 0.5 µM throughout.

In the case of `O=C(c1ccc(-c2cc3ccccc3nc2O)cc1F)N1CCN(C(=O)C2(O)CC2)CC1` [3-[3-fluoro-4-({4-[(1-hydroxycyclopropyl)carbonyl]piperazin-1-yl}carbonyl)phenyl]quinolin-2-ol], the IC50 in the assay on PC3 cells (setting [1]) and at FASN enzyme was less than 0.5 µM throughout.

Consider `O=C(c1ccc(-c2cnc3ccccc3c2)c(F)c1)N1CCN(C(=O)C2(O)CC2)CC1` [1-[(4-{[3-fluoro-4-(quinolin-3-yl)phenyl]carbonyl}piperazin-1-yl)carbonyl]cyclopropan-1-ol], for which the IC50 with PC3 cells (setting [1]) and on FASN enzyme was less than 0.5 µM each time.

On to `O=C(c1ccc(-c2cc(Cl)ccc2F)cc1)N1CCN(C(=O)C2(O)CC2)CC1` [1-[(4-{[4-(5-chloro-2-fluorophenyl)phenyl]carbonyl}piperazin-1-yl)carbonyl]cyclopropan-1-ol], for which the IC50 with PC3 cells (setting [1]) and against FASN enzyme was less than 0.5 µM throughout.

Take `O=C(c1ccc(-c2cccc3ncccc23)cc1)N1CCN(C(=O)C2(O)CC2)CC1` [1-[(4-{[4-(quinolin-5-yl)phenyl]carbonyl}piperazin-1-yl)carbonyl]cyclopropan-1-ol]: the IC50 in the assay on PC3 cells (setting [1]) and against FASN enzyme was less than 0.5 µM each time.

On to `Cn1cnc2cc(-c3ccc(C(=O)N4CCN(C(=O)C5(O)CC5)CC4)cc3)ccc21` [1-[(4-{[4-(1-methyl-1H-1,3-benzodiazol-5-yl)phenyl]carbonyl}piperazin-1-yl)carbonyl]cyclopropan-1-ol], for which the IC50 with PC3 cells (setting [1]) and at FASN enzyme was less than 0.5 µM in each case.

`Cn1ccc2cc(-c3ccc(C(=O)N4CCN(C(=O)C5(O)CC5)CC4)c(F)c3)ccc21` [1-[(4-{[2-fluoro-4-(1-methyl-1H-indol-5-yl)phenyl]carbonyl}piperazin-1-yl)carbonyl]cyclopropan-1-ol]: the concentration for half-maximal inhibition (IC50) with PC3 cells (setting [1]) and at FASN enzyme was less than 0.5 µM each time.

With `O=C(c1ccc(-c2ccc3scnc3c2)cc1Cl)N1CCN(C(=O)C2(O)CC2)CC1` [1-[(4-{[4-(1,3-benzothiazol-5-yl)-2-chlorophenyl]carbonyl}piperazin-1-yl)carbonyl]cyclopropan-1-ol], the IC50 in the assay with PC3 cells (setting [1]) and against FASN enzyme was less than 0.5 µM each time.

As for `O=C(c1ccc(-c2ccc3n[nH]nc3c2)cc1)N1CCN(C(=O)C2(O)CC2)CC1` [1-[(4-{[4-(2H-1,2,3-benzotriazol-5-yl)phenyl]carbonyl}piperazin-1-yl)carbonyl]cyclopropan-1-ol], the IC50 in the assay on PC3 cells (setting [1]) and on FASN enzyme was less than 0.5 µM throughout.

For the molecule `O=C(c1ccc(-c2ccc3cnccc3c2)cc1)N1CCN(C(=O)C2(O)CCC2)CC1` [1-[(4-{[4-(isoquinolin-6-yl)phenyl]carbonyl}piperazin-1-yl)carbonyl]cyclobutan-1-ol], the IC50 with PC3 cells (setting [1]) and on FASN enzyme was less than 0.5 µM in each case.

As for `O=C(c1ccc(-c2cc(F)c3[nH]ccc3c2)cc1F)N1CCN(C(=O)C2(O)CC2)CC1` [1-[(4-{[2-fluoro-4-(7-fluoro-1H-indol-5-yl)phenyl]carbonyl}piperazin-1-yl)carbonyl]cyclopropan-1-ol], the IC50 in the assay with PC3 cells (setting [1]) and at FASN enzyme was less than 0.5 µM throughout.

Consider `O=C(c1ccc(-c2nccc3ccccc23)cc1)N1CCN(C(=O)C2(O)CC2)CC1` [1-[(4-{[4-(isoquinolin-1-yl)phenyl]carbonyl}piperazin-1-yl)carbonyl]cyclopropan-1-ol], for which the IC50 with PC3 cells (setting [1]) and at FASN enzyme was less than 0.5 µM throughout.

In the case of `O=C(c1ccc(-c2cnc3ccccc3c2Cl)cc1)N1CCN(C(=O)C2(O)CC2)CC1` [1-[(4-{[4-(4-chloroquinolin-3-yl)phenyl]carbonyl}piperazin-1-yl)carbonyl]cyclopropan-1-ol], the IC50 in the assay with PC3 cells (setting [1]) and against FASN enzyme was less than 0.5 µM in each case.

For the molecule `O=C(c1ccc(-c2ccc3ocnc3c2)cc1)N1CCN(C(=O)C2(O)CC2)CC1` [1-[(4-{[4-(1,3-benzoxazol-5-yl)phenyl]carbonyl}piperazin-1-yl)carbonyl]cyclopropan-1-ol], the IC50 with PC3 cells (setting [1]) and at FASN enzyme was less than 0.5 µM in each case.

For the molecule `O=C(c1ccc(-c2nc3ccccc3o2)cc1)N1CCN(C(=O)C2(O)CC2)CC1` [1-[(4-{[4-(1,3-benzoxazol-2-yl)phenyl]carbonyl}piperazin-1-yl)carbonyl]cyclopropan-1-ol], the IC50 in the assay on PC3 cells (setting [1]) and against FASN enzyme was less than 0.5 µM each time.

Regarding `COc1ccc2cc(-c3ccc(C(=O)N4CCN(C(=O)C5(O)CC5)CC4)cc3)ccc2n1` [1-[(4-{[4-(2-methoxyquinolin-6-yl)phenyl]carbonyl}piperazin-1-yl)carbonyl]cyclopropan-1-ol], the IC50 in the assay with PC3 cells (setting [1]) and against FASN enzyme was less than 0.5 µM in each case.

Take `O=C(c1ccc(-c2nc3ccccc3[nH]2)cc1)N1CCN(C(=O)C2(O)CC2)CC1`: the IC50 (usually the concentration at which inhibition is half-maximal) in the assay with PC3 cells (setting [1]) was less than 0.5 µM; against FASN enzyme (FASN enzymatic assay, Table 2-2), 0.5 to 5 µM.

As to `O=C(c1ccc(-c2cn3ccccc3n2)cc1Cl)N1CCN(C(=O)C2(O)CC2)CC1` [1-({4-[(2-chloro-4-{imidazo[1,2-a]pyridin-2-yl}phenyl)carbonyl]piperazin-1-yl}carbonyl)cyclopropan-1-ol], the IC50 in the assay with PC3 cells (setting [1]) and at FASN enzyme was less than 0.5 µM throughout.

As to `O=C(c1ccc(-c2cnc3ccccc3c2)cc1F)N1CCN(C(=O)C2(O)CC2)CC1` [1-[(4-{[2-fluoro-4-(quinolin-3-yl)phenyl]carbonyl}piperazin-1-yl)carbonyl]cyclopropan-1-ol], the IC50 in the assay with PC3 cells (setting [1]) and at FASN enzyme was less than 0.5 µM in each case.

For `O=C(c1ccc(-c2ccc3nccn3n2)cc1)N1CCN(C(=O)C2(O)CC2)CC1` [1-({4-[(4-{imidazo[1,2-b]pyridazin-6-yl}phenyl)carbonyl]piperazin-1-yl}carbonyl)cyclopropan-1-ol], the IC50 in the assay with PC3 cells (setting [1]) and on FASN enzyme was less than 0.5 µM throughout.

`O=C(c1ccc(-c2cccc(NS(=O)(=O)C3CC3)c2)cc1)N1CCN(C(=O)C2(O)CC2)CC1` [N-{3-[4-({4-[(1-hydroxycyclopropyl)carbonyl]piperazin-1-yl}carbonyl)phenyl]phenyl}cyclopropanesulfonamide]: the IC50 in the assay with PC3 cells (setting [1]) and at FASN enzyme was less than 0.5 µM in each case.

Regarding `Cc1cc(C(=O)N2CCN(C(=O)C3(O)CC3)CC2)ccc1-c1ccc2scnc2c1` [1-[(4-{[4-(1,3-benzothiazol-5-yl)-3-methylphenyl]carbonyl}piperazin-1-yl)carbonyl]cyclopropan-1-ol], the IC50 in the assay on PC3 cells (setting [1]) and on FASN enzyme was less than 0.5 µM each time.

Turning to `O=C(c1ccc(-c2n[nH]c3ccccc23)cc1)N1CCN(C(=O)C2(O)CC2)CC1` [1-[(4-{[4-(1H-indazol-3-yl)phenyl]carbonyl}piperazin-1-yl)carbonyl]cyclopropan-1-ol], the IC50 in the assay with PC3 cells (setting [1]) and against FASN enzyme was less than 0.5 µM each time.

In the case of `O=C(c1ccc(-c2cn3ccccc3n2)cc1)N1CCN(C(=O)C2(O)CC2)CC1`, the IC50 with PC3 cells (setting [1]) and on FASN enzyme was less than 0.5 µM in each case.

As to `COc1nc2ccccc2cc1-c1ccc(C(=O)N2CCN(C(=O)C3(O)CC3)CC2)c(F)c1` [1-[(4-{[2-fluoro-4-(2-methoxyquinolin-3-yl)phenyl]carbonyl}piperazin-1-yl)carbonyl]cyclopropan-1-ol], the IC50 in the assay with PC3 cells (setting [1]) and on FASN enzyme was less than 0.5 µM throughout.

Take `COc1ccc2nc(-c3ccc(C(=O)N4CCN(C(=O)C5(O)CC5)CC4)c(F)c3)ccc2c1` [1-[(4-{[2-fluoro-4-(6-methoxyquinolin-2-yl)phenyl]carbonyl}piperazin-1-yl)carbonyl]cyclopropan-1-ol]: the IC50 in the assay on PC3 cells (setting [1]) and on FASN enzyme was less than 0.5 µM in each case.

As to `O=C(c1ccc(-c2cnc3ccccc3c2)cc1)N1CCN(C(=O)C2CCO2)CC1` (centres unmarked) [3-[4-({4-[(oxetan-2-yl)carbonyl]piperazin-1-yl}carbonyl)phenyl]quinoline], the IC50 was not below 0.5 µM with PC3 cells (read-out: IC50 (uM) ≥ 0.5, 10% lipid reduced serum, 4 days, Table 3-2) and less than 0.5 µM on FASN enzyme.

For `O=C(c1ccc(-c2ccc3ccccc3n2)c(F)c1F)N1CCN(C(=O)C2(O)CC2)CC1` [1-[(4-{[2,3-difluoro-4-(quinolin-2-yl)phenyl]carbonyl}piperazin-1-yl)carbonyl]cyclopropan-1-ol], the IC50 in the assay on PC3 cells (setting [1]) and at FASN enzyme was less than 0.5 µM throughout.

Consider `Cn1ccc2cc(-c3ccc(C(=O)N4CCN(C(=O)C5(O)CC5)CC4)nc3)ccc21` [1-[(4-{[5-(1-methyl-1H-indol-5-yl)pyridin-2-yl]carbonyl}piperazin-1-yl)carbonyl]cyclopropan-1-ol], for which the IC50 in the assay on PC3 cells (setting [1]) and on FASN enzyme was less than 0.5 µM each time.
